Here are results for 20 compounds from patent US9796711B2, “Substituted pyrazolo[3,4-b]pyridin-6-carboxylic acids and method of use” (AbbVie S.àr.l., priority 2015, dated 2017).

This test addresses T1, CFTR ΔF508 (Homo sapiens, UniProt P13569, DEL508-508).
T1 construct: bronchial epithelial cells isolated from CF patients homozygous for the CFTR ΔF508 mutation; McGill University; Asterand; University of North Carolina hAEC-CF; host or cells: primary human bronchial epithelial cells from CF patients homozygous for ΔF508
The experiment in a line: Chronic TECC assay on primary bronchial epithelial cells (corrector, co-corrector and potentiator). In kind it is cell-based. As for the experimental part: Primary Bronchial Epithelial Cells Protocol
The TECC (Tranepithelial Clamp Circuit, EP-design) assay measures the functionality of the cystic fibrosis Transmembrane Conductance regulator (CFTR) by measuring the short circuit current (Isc) generated over the basolateral and apical membrane of lung epithelial cells. In TECC the transepithelial potential PD and transepithelial resistance (Rt)) are measured in an open circuit and transformed to Ieq using Ohm's law. 24 Wells can be measured simultaneously allowing a higher throughput compared to Ussing chambers.
For this purpose, bronchial epithelial cells isolated from CF patients homozygous for the CFTR ΔF508 mutation (hAEC-CF, Epithelix, Geneva, Switzerland; McGill University, Montreal, Qc; Asterand, Detroit, Mich.; University of North Carolina, Chapel Hill, N.C.) are plated on type IV collagen-coated Transwell® supports (Costar). Human airway epithelia are generated by provision of an air-liquid interface for 21 days to form well-differentiated polarized cultures that resemble in vivo pseudo-stratified ciliated epithelium (Fulcher, M. L., Gabriel, S., Burns, K. A., Yankaskas, J. R., Randell, S. H., 2005. Well-differentiated human airway epithelial cell cultures. Methods Mol. Med. 107, 183-206). The differentiated cells are treated with test corrector compound(s) (corrector alone or in combination with co-corrector, 4-[(2R,4R)-4-({[1-(2,2-difluoro-1,3-benzodioxol-5-yl)cyclopropyl]carbonyl}amino)-7-methoxy-3,4-dihydro-2H-chromen-2-yl]benzoic acid (G924806/A-1618261) (“acute”) or test corrector compounds, co-corrector and potentiator, N-(3-carbamoyl-5,5,7,7-tetramethyl-4,7-dihydro-5H-thieno[2,3-c]pyran-2-yl)-1H-pyrazole-5-carboxamide GLPG1837, (“chronic”) for 24 hours basolaterally to allow sufficient expression of properly folded CFTR protein on the membrane. All compound plates contained negative controls (DMSO) and positive controls (0.15 μM, 4-[(2R,4R)-4-({[1-(2,2-difluoro-1,3-benzodioxol-5-yl)cyclopropyl]carbonyl}amino)-7-(difluoromethoxy)-3,4-dihydro-2H-chromen-2-yl]benzoic acid).
For electrophysiological recording of the “chronic” experiments, the human airway epithelia are mounted in the TECC heating plate for electrophysiological measurement and kept at 37° C. The epithelia are bathed in a NaCl-Ringer solution (120 mM NaCl, 25 mM NaHCO3, 1.2 mM CaCl2, 1.2 mM MgCl2, 0.8 mM KH2PO4, 0.8 mM K2HPO4, pH 7.4, 5 mM glucose) on both the basolateral and apical sides. Test compounds (corrector, co-corrector, 4-[(2R,4R)-4-({[1-(2,2-difluoro-1,3-benzodioxol-5-yl)cyclopropyl]carbonyl}amino)-7-(difluoromethoxy)-3,4-dihydro-2H-chromen-2-yl]benzoic acid, and potentiator, N-(3-carbamoyl-5,5,7,7-tetramethyl-4,7-dihydro-5H-thieno[2,3-c]pyran-2-yl)-1H-pyrazole-5-carboxamide), are re-added to the recording solution prior to measurement. Apical amiloride is used to inhibit the endogenous ENaC currents while forskolin is applied on both apical and basolateral side to stimulate CFTR. Measurements are done during a 20 minute timeframe with recordings every 2 minutes. The increase in Ieq is used as a measure for the increased CFTR activity, EC50 values can be generated by measuring impact of different concentrations of compound on Ieq on primary cells, for this purpose each transwell is treated with a different compound concentration. Inhibitor-172, an inhibitor specific for CFTR, is used to test the specificity of the tested compounds. Raw data were normalized to percentage activity values using the equation: 100×(Sample−Negative control)/(Positive control−Negative Control).

The mark [1] stands for this setting: chronic TECC, AUC = full area under the curve upon forskolin stimulation, with co-corrector and potentiator, 24 hours.
Where [2] appears, read: chronic TECC, AUC = full area under the curve upon forskolin stimulation, with co-corrector and potentiator, 24 hours, read-out: EC50 (nM) (AUC).
The mark [3] stands for this setting: chronic TECC, Ieq = calculations based on the maximum current, with co-corrector and potentiator, 24 hours.
Where [4] appears, read: chronic TECC, Ieq = calculations based on the maximum current, with co-corrector and potentiator, 24 hours, read-out: EC50 (nM) (Ieq).

The structures appear in SMILES notation. Where two headings read alike, the source gives them in different places. Some results are limits rather than exact numbers.

T1 sequence (P13569 with tags, fused parts or gaps DEL508-508): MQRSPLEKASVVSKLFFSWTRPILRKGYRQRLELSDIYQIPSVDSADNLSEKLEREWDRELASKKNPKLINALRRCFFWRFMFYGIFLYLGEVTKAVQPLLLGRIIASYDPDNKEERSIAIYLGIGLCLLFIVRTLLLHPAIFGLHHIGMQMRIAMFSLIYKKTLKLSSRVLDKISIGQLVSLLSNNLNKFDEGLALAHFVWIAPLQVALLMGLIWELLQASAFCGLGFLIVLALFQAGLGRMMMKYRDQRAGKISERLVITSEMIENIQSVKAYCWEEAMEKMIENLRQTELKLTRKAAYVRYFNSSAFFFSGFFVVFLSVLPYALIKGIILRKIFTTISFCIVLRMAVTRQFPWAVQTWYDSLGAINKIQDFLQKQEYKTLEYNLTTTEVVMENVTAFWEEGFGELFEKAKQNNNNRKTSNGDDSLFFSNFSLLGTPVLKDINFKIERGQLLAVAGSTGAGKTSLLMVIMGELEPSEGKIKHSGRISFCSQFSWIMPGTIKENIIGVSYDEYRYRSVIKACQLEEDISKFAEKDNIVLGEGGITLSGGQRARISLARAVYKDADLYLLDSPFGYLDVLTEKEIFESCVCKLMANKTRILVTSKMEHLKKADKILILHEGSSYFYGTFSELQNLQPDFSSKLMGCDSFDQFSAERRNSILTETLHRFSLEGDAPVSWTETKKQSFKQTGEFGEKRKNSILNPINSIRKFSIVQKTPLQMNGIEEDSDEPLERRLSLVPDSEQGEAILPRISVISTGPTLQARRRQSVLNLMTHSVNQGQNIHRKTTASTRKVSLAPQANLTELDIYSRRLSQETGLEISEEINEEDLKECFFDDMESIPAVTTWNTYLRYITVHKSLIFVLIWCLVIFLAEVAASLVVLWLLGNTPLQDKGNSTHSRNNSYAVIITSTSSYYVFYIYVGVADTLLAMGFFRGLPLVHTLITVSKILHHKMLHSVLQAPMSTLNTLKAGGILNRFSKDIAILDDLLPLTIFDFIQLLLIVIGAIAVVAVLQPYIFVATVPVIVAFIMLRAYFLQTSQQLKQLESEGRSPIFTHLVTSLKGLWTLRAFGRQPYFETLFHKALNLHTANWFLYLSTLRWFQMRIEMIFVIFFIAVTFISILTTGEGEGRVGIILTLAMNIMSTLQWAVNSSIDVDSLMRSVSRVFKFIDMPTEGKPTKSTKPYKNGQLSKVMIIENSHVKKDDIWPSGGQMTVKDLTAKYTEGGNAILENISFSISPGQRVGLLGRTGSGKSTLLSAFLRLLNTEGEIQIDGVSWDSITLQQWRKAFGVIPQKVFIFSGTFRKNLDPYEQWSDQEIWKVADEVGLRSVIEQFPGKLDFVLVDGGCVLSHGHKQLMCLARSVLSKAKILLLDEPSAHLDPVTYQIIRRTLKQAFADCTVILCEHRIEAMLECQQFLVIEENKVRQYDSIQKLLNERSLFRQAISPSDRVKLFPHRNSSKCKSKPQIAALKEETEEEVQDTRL

As for `O=C(O)c1cc(N2CCC(CCN3CCOCC3)CC2)c2c(C3CCC3)nn(-c3ccc(F)cc3)c2n1` [compound 810, 3-cyclobutyl-1-(4-fluorophenyl)-4-{4-[2-(morpholin-4-yl)ethyl]piperidin-1-yl}-1H-pyrazolo[3,4-b]pyridine-6-carboxylic acid], the “% Activity at 1 μM (AUC**)” value under setting [1] is 191.4768%.
One may read the EC50 as the concentration needed to bring the measured effect to its halfway point. Consider `CC(C)c1nn(-c2ccc(F)cc2)c2nc(C(=O)O)cc(N3CCC(CN4CCCCC4)CC3)c12` [compound 790, 1-(4-fluorophenyl)-4-{4-[(piperidin-1-yl)methyl]piperidin-1-yl}-3-(propan-2-yl)-1H-pyrazolo[3,4-b]pyridine-6-carboxylic acid], for which the “% Activity at 1 μM (AUC**)” value under setting [1] is 220%. Under setting [2], the EC50 was 120 nM.
Regarding `CC(C)N1CCC2(CCN(c3cc(C(=O)O)nc4c3c(C3CCC3)nn4-c3ccc(F)cc3)CC2)CC1` [compound 890, 3-cyclobutyl-1-(4-fluorophenyl)-4-[9-(propan-2-yl)-3,9-diazaspiro[5.5]undecan-3-yl]-1H-pyrazolo[3,4-b]pyridine-6-carboxylic acid], the “% Activity at 1 μM (AUC**)” value under setting [1] turned out to be 366.6667%.
Turning to `O=C(O)c1cc(N2CCC(N3CCC(F)CC3)CC2)c2c(C3CCC3)nn(-c3ccc(F)cc3)c2n1` [compound 849, 3-cyclobutyl-4-(4-fluoro[1,4′-bipiperidin]-1′-yl)-1-(4-fluorophenyl)-1H-pyrazolo[3,4-b]pyridine-6-carboxylic acid], the “% Activity at 1 μM (AUC**)” value under setting [1] was found to be 256.6667%. The EC50 under setting [2] was 15.6 nM.
`CC(C)c1nn(-c2cc(F)cc(F)c2)c2nc(C(=O)O)cc(-c3ccc(N4CCOCC4)cc3)c12` [compound 268, 1-(3,5-difluorophenyl)-4-[4-(morpholin-4-yl)phenyl]-3-(propan-2-yl)-1H-pyrazolo[3,4-b]pyridine-6-carboxylic acid]: the “% Activity at 1 μM (Ieq*)” value under setting [3] is 267%. In addition, the EC50 under setting [4] was 25 nM.
As to `COC1CCN(C2CCN(c3cc(C(=O)O)nc4c3c(C3CCC3)nn4-c3ccc(F)cc3)CC2)CC1` [compound 892, 3-cyclobutyl-1-(4-fluorophenyl)-4-(4-methoxy[1,4′-bipiperidin]-1′-yl)-1H-pyrazolo[3,4-b]pyridine-6-carboxylic acid], under setting [1], the “% Activity at 1 μM (AUC**)” value is listed as 188.3291%. Also, under setting [2], the EC50 turned out to be 900 nM.
As to `O=C(O)c1cc(N2CCC(N3CCOCC3)CC2)c2c(C3CCC3)nn(-c3ccccc3)c2n1` [compound 560, 3-cyclobutyl-4-[4-(morpholin-4-yl)piperidin-1-yl]-1-phenyl-1H-pyrazolo[3,4-b]pyridine-6-carboxylic acid], the EC50 was less than 30 nM.
Consider `O=C(O)c1cc(N2CCC3(CC2)CCN(C2CCC2)CC3)c2c(C3CCC3)nn(-c3ccc(F)cc3)c2n1` [compound 894, 3-cyclobutyl-4-(9-cyclobutyl-3,9-diazaspiro[5.5]undecan-3-yl)-1-(4-fluorophenyl)-1H-pyrazolo[3,4-b]pyridine-6-carboxylic acid], for which the “% Activity at 1 μM (AUC**)” value under setting [1] is 300%.
As to `Cc1cccc(-n2nc(C(C)C)c3c(N4CCC(C#N)CC4)cc(C(=O)O)nc32)c1` [compound 191, 4-(4-cyanopiperidin-1-yl)-1-(3-methylphenyl)-3-(propan-2-yl)-1H-pyrazolo[3,4-b]pyridine-6-carboxylic acid], under setting [3], the “% Activity at 1 μM (Ieq*)” value is given as 220%. Moreover, the EC50 under setting [4] was 50 nM.
As to `O=C(O)c1cc(N2CCC(N3CCN(C4CC4)CC3)CC2)c2c(C3CCC3)nn(-c3ccc(F)cc3)c2n1` [compound 886, 3-cyclobutyl-4-[4-(4-cyclopropylpiperazin-1-yl)piperidin-1-yl]-1-(4-fluorophenyl)-1H-pyrazolo[3,4-b]pyridine-6-carboxylic acid], under setting [1], the “% Activity at 1 μM (AUC**)” value was determined as 282.5409%.
In the case of `O=C(O)c1cc(N2CCC(N3CCCCC3)CC2)c2c(C3CCC3)nn(-c3ccccc3)c2n1` [compound 576, 4-([1,4′-bipiperidin]-1′-yl)-3-cyclobutyl-1-phenyl-1H-pyrazolo[3,4-b]pyridine-6-carboxylic acid], under setting [1], the “% Activity at 1 μM (AUC**)” value was 183%.
For the compound `CC(C)c1nn(-c2cccc(N3CCOCC3)c2)c2nc(C(=O)O)cc(-c3cnc(N4CCC(C#N)CC4)nc3)c12` [compound 204, 4-[2-(4-cyanopiperidin-1-yl)pyrimidin-5-yl]-1-[3-(morpholin-4-yl)phenyl]-3-(propan-2-yl)-1H-pyrazolo[3,4-b]pyridine-6-carboxylic acid], the “% Activity at 1 μM (Ieq*)” value under setting [3] was 241%. Moreover, the EC50 under setting [4] is less than 30 nM.
With `O=C(O)c1cc(N2CCC(N3CCOCC3)CC2)c2c(C3CCC3)nn(-c3cccc(OC(F)F)c3)c2n1` [compound 910, 3-cyclobutyl-1-[3-(difluoromethoxy)phenyl]-4-[4-(morpholin-4-yl)piperidin-1-yl]-1H-pyrazolo[3,4-b]pyridine-6-carboxylic acid], under setting [1], the “% Activity at 3 μM (AUC)” value was 531.5026%.
For the compound `CC(C)c1nn(-c2ccc(F)cc2)c2nc(C(=O)O)cc(N3CCC(N4CCN(C5CC5)CC4)CC3)c12` [compound 754, 4-[4-(4-cyclopropylpiperazin-1-yl)piperidin-1-yl]-1-(4-fluorophenyl)-3-(propan-2-yl)-1H-pyrazolo[3,4-b]pyridine-6-carboxylic acid], the “% Activity at 1 μM (AUC**)” value under setting [1] stood at 190%.
On to `COC1CCN(c2cc(C(=O)O)nc3c2c(C(C)C)nn3-c2cccc(C)c2)CC1` [compound 192, 4-(4-methoxypiperidin-1-yl)-1-(3-methylphenyl)-3-(propan-2-yl)-1H-pyrazolo[3,4-b]pyridine-6-carboxylic acid], for which the “% Activity at 1 μM (Ieq*)” value under setting [3] is reported as 235%. Moreover, under setting [4], the EC50 is less than 30 nM.
As to `COCC1CCN(c2cc(C(=O)O)nc3c2c(C(C)C)nn3-c2cccc(C)c2)CC1` [compound 227, 4-[4-(methoxymethyl)piperidin-1-yl]-1-(3-methylphenyl)-3-(propan-2-yl)-1H-pyrazolo[3,4-b]pyridine-6-carboxylic acid], under setting [3], the “% Activity at 1 μM (Ieq*)” value is reported as 300%. Further, under setting [4], the EC50 was 30 nM.
Take `O=C(O)c1cc(N2CCC(CN3CCCC3)CC2)c2c(C3CCC3)nn(-c3ccccc3)c2n1` [compound 557, 3-cyclobutyl-1-phenyl-4-{4-[(pyrrolidin-1-yl)methyl]piperidin-1-yl}-1H-pyrazolo[3,4-b]pyridine-6-carboxylic acid]: under setting [1], the “% Activity at 1 μM (AUC**)” value was 262% and the “% Activity at 3 μM (AUC)” value is 384%.
For `CO[C@@H]1CCN(CC2CCN(c3cc(C(=O)O)nc4c3c(C3CCC3)nn4-c3ccccc3)CC2)C1` [compound 803, 3-cyclobutyl-4-(4-{[(3R)-3-methoxypyrrolidin-1-yl]methyl}piperidin-1-yl)-1-phenyl-1H-pyrazolo[3,4-b]pyridine-6-carboxylic acid], the “% Activity at 1 μM (AUC**)” value under setting [1] is 161.4501%.
In the case of `CC(F)(F)c1cccc(-n2nc(C3CCC3)c3c(N4CCC(N5CCOCC5)CC4)cc(C(=O)O)nc32)c1` [compound 915], the “% Activity at 3 μM (AUC)” value under setting [1] is recorded as 423.3333%.
Consider `CN1CCC2(CC1)CCN(c1cc(C(=O)O)nc3c1c(C1CCC1)nn3-c1ccccc1)CC2` [compound 699, 3-cyclobutyl-4-(9-methyl-3,9-diazaspiro[5.5]undecan-3-yl)-1-phenyl-1H-pyrazolo[3,4-b]pyridine-6-carboxylic acid], for which the EC50 under setting [2] was determined as 162 nM.
